{
  "source": "patent US8802631B2",
  "about": "“Peptides and methods for the treatment of gliomas and other cancers” (Ludwig Institute for Cancer Research Ltd., priority 2007, dated 2014)",
  "key": {"A172 cells [1]": {"test_system": "A172 cells", "experiment": "[3H]-thymidine incorporation proliferation assay in A172 cells", "assay_type": "cell-based, human", "details": "24 hr; for promotion of proliferation by peptide alone: serum-free media, FIG. 6"}, "A172 cells [2]": {"test_system": "A172 cells", "experiment": "BrdU incorporation assay in A172 cells", "assay_type": "cell-based, human", "details": "peptide 170 nM plus STI1 170 nM, 18 hours, FIG. 7A", "protocol": "Cells were plated overnight on 24-well plates with glass coverslips, at a density of 1×10^4 cells per well, in DMEM high glucose plus 10% FCS at 37° C. Plates were washed 3 times with PBS and were maintained in DMEM without FCS for 30 hours. Cells were then treated for 18 hours with DMEM/10% FCS or DMEM plus mouse recombinant STI1 (170 nM); STI1 (170 nM) plus STI1230-245 peptide (170 nM); or STI1 (170 nM) plus STI161-76 irrelevant peptide (170 nM). Thirty minutes before the end of treatment, cells received a pulse of BrdU (35 μM) and were fixed with 4% paraformaldehyde.\nCoverslips were treated with 2N HCl for 30 minutes. The reagent was then removed and borate buffer applied (boric acid 0.1M, sodium hydroxide 0.15M), pH 8.4, for 10 minutes. Then, cells were treated with PBS plus 0.2% Triton X-100 for 15 minutes. The blocking step was made with PBS/0.2% Triton with 20% horse serum, for 1 hour. […]\nThere were taken at least four microscopic fields of each treatment on WB filter, ranging from 330-385 nm (DAPI), plus their respective BrdU images, on WIB filter, 450-480 nm using DP controller software, Olympus. Picture files were analyzed on ImageJ software, and the percentage of BrdU positive nuclei in respect to total nuclei number (DAPI) was calculated using the Analyze Particles tool. […]"}, "U87MG cells": {"test_system": "U87MG cells", "experiment": "BrdU incorporation assay in U87MG cells", "assay_type": "cell-based, human", "details": "24 hours; for effect of peptide on cell proliferation mediated by STI1 (BrdU): peptide 0.17 μM or 8 μM plus STI1 0.17 μM, FIG. 8; for effect of peptide on STI1-promoted U87MG proliferation (BrdU): FIG. 7B; for effect of TAT peptide on cell proliferation mediated by STI1 (BrdU): TAT peptide 0.17 μM plus STI1 0.17 μM, FIG. 9", "protocol": "Cells were plated overnight on 24-well plates with glass cover slips, at a density of 1.5×10^4 cells per well, with DMEM with 10% FCS at 37° C. Plates were washed 3 times with PBS and were maintained in DMEM F12 for 48 hours. Cells were then treated for 24 hours with DMEM/10% FCS or DMEM plus mouse recombinant STI1 (170 nM); recombinant STI1 (170 nM) plus mouse peptide STI1230-245(ELGNDAYKKKDFDKAL) (SEQ ID NO: 1) or its human homologue peptide Hop230-245(ELGNDAYKKKDFDTAL) (SEQ ID NO: 2) (170 nM or 8 μM); STI1 (170 nM) plus STI1/Hop61-76 (GCKTVDLKPDWGKGYS) (SEQ ID NO: 3) irrelevant peptide (170 nM or 8 μM); or each one of the peptides alone. Two hours before the end of treatment, cells received a pulse of BrdU (35 μM) pulse and were fixed with 4% paraformaldehyde.\nCoverslips were treated with 2N HCl for 30 minutes. The reagent was then removed and borate buffer applied (boric acid 0.1M, sodium hydroxide 0.15M), pH 8.4, for 10 minutes. Then, cells were treated with PBS plus 0.2% Triton X-100 for 15 minutes. The blocking step was made with PBS/0.2% Triton with 20% horse serum, for 1 hour. Primary anti-BrdU biotinylated antibodies (1:100) were applied overnight (diluted in PBS/0.2% Triton with 1% horse serum). Coverslips were washed 3 times with PBS and incubated for one hour with Strepta-Alexa 488 and DAPI reagents (1:1000), washed more 3 times with PBS and assembled to slides.\nThere were taken at least four microscopic fields of each treatment on WB filter, ranging from 330-385 nm (DAPI), plus their respective BrdU images, on WIB filter, 450-480 nm using DP controller software, Olympus. Picture files were analyzed on ImageJ software, and the percentage of BrdU positive nuclei in respect to total nuclei number (DAPI) was calculated using the Analyze Particles tool.\nFIG. 7B: Treatment of U87MG cells with STI1230-245 peptide abrogates cell proliferation mediated by STI1. U87MG human glioblastoma cells were plated at 1.5×10^4 confluence on glass cover slips of 12 mm. After overnight adherence, cells were starved on serum-free media for 48 hours. Cells were subjected to distinct treatments (see picture) for 24 hours, and a BrdU pulse of 32 μM was performed on the last 2 hours of treatment. Immunofluorescence and cell imaging were done in order to permit absolute cell counting. Values represent percentage of BrdU positive cell nuclei from total number of cell nuclei. FCS (fetal calf serum), STI1/Hop (0.17 μM or 8 μM) and/or STI1230-245 (0.17 μM or 8 μM) and/or STI1/Hop61-76 (irrelevant N-terminus STI1/Hop peptide, 0.17 μM or 8 μM). *Statistically significant from control (without treatment), p<0.001. Bars shown as mean±SEM.\nFIG. 8: Hop230-245 peptide inhibits the U87MG cell proliferation mediated by STI1. U87MG human glioblastoma cells were plated at 1.5×10^4 confluence on glass cover slips of 12 mm. After overnight adherence, cells were starved on serum-free media for 48 hours. Cells were subjected to distinct treatments (see picture) for 24 hours, and a BrdU pulse of 32 μM was performed on the last 2 hours of treatment. Immunofluorescence and cell imaging were done in order to permit absolute cell counting. Values represent percentage of BrdU positive cell nuclei from total number of cell nuclei. STI1 (0.17 μM) and/or Hop230-245 (0.17 μM or 8 μM) and/or STI1/Hop61-76 (irrelevant STI1/Hop61-76, 0.17 μM or 8 μM). *Statistically significant from control (without treatment), p<0.01. Bars shown as mean±SEM.\nFIG. 9: Treatment of U87MG cells with TAT-STI1230-245 and TAT-Hop230-245 peptides inhibits cell proliferation mediated by STI1. U87MG human glioblastoma cells were plated at 1.5×10^4 confluence on glass cover slips of 12 mm. After overnight adherence, cells were starved on serum-free media for 48 hours. Cells were subjected to distinct treatments (see picture) for 24 hours, and a BrdU pulse of 32 μM was performed on the last 2 hours of treatment. Immunofluorescence and cell imaging were done in order to permit absolute cell counting. […]"}, "rats": {"test_system": "rats", "experiment": "One-trial step-down inhibitory avoidance (IA) long-term memory test", "assay_type": "in vivo, rat", "text": "Rats were trained in a one-trial, step-down IA paradigm, a hippocampal-dependent learning task in which stepping down from a platform present in a given context is associated with a foot shock, resulting in an increase in step-down latency when the animal is brought back to the training chamber for a retention test (Cammarota et al., 2004). The IA apparatus was a 50×25×25 cm Plexiglas box with a 5-cm-high, 8-cm-wide and 25-cm-long platform on the left end of a series of bronze bars that constitutes the floor of the box. During training, each animal was gently placed on the platform facing the left rear corner of the training box. When an animal stepped down and placed all four of its paws on the grid, it received a 2-s, 0.5-mA foot shock and was then immediately withdrawn from the training box. Animals were replaced in the IA box for retention testing 90 min (for short-term memory (STM)), or 24 h later (for long-term memory (LTM)); their latency to step down onto the grid was recorded. The difference between the training and test-session step-down latencies was taken as a measure of retention. Better memory for the training was inferred from longer retention latencies (Bernabeu et al., 1997; Izquierdo et al., 1997). The maximum retention latency allowed was 180 s, at which time the animal was taken out of the IA box if it had not stepped down and given a score of 180 s. Full details of the experimental protocols can be found in Coitinho et al., 2007.\nThe data obtained in tests of the effect of peptides on rat long-term memory are presented as medians±interquartile range and were analyzed by the Kruskal-Wallis nonparametric test followed by Dunn's post-hoc (n=10 to 13 animals for each treatment group). In all comparisons, p<0.05 was taken as a significant difference.\nFIG. 11: STI1230-245 peptide and TAT-STI1230-245 peptides are capable of increasing long-term memory. The latency to step down before treated rats was recorded (Training) and immediately after training animals received a bilateral hippocampal infusion of saline, STI1230-245 peptide, TAT-STI1230-245 or TAT-STI161-76 irrelevant peptide at the concentration of 15 ng/μl in a total volume of 0.5 μl/side. The latency to step down was tested again 24 hours later (LTM test) and measures Long-term memory (LTM). Data are shown as mean±SE of step-down latencies (n=12 rats in each group). *p<0.05 vs control."}, "[3]": {"target": "cellular prion protein (PrP^C), endogenous, on human glioblastoma cells (A172, U87MG) (human (A172 human glioblastoma cell line)) (UniProt P04156)", "experiment": "cell-based or functional assay"}, "Erk": {"test_system": "Erk", "experiment": "Western blot of phospho-Erk in A172 cell lysates", "assay_type": "cell-based, human", "details": "inhibitor added 10 minutes prior to STI1"}},
  "data": [
    {"compound": "GCKTVDLKPDWGKGYS (listed as Homo sapiens) [STI1/Hop61-76, N-terminus irrelevant STI1/Hop peptide, reference compound]", "values": [
      {"measurement": "promotion of proliferation by peptide alone", "setting": "A172 cells [1]", "value": "did not enhance proliferation"},
      {"measurement": "effect of peptide on STI1-induced proliferation (BrdU)", "setting": "A172 cells [2]", "value": "no effect"},
      {"measurement": "effect of peptide on cell proliferation mediated by STI1 (BrdU)", "setting": "U87MG cells", "value": "had no effect upon proliferation mediated by STI1"}
    ]},
    {"compound": "ELGNDAYKKKDFDKAL (listed as Mus musculus) [STI1230-245]", "values": [
      {"measurement": "long-term memory (retention latency, LTM test 24 hours after training)", "setting": "rats; bilateral hippocampal infusion immediately after training, 15 ng/μl, 0.5 μl/side", "value": "greatly enhanced long-term memory"},
      {"measurement": "effect in memory consolidation", "setting": "rats; rats, FIG. 11", "value": "potent effect in memory consolidation"},
      {"measurement": "promotion of proliferation by peptide alone", "setting": "A172 cells [1]", "value": "unable by itself to promote proliferation"},
      {"measurement": "effect of peptide on STI1-induced proliferation (BrdU)", "setting": "A172 cells [2]", "value": "inhibited STI1-induced proliferation"},
      {"measurement": "effect of peptide on cell proliferation mediated by STI1 (BrdU)", "setting": "U87MG cells", "value": "able to abrogate the cell proliferation mediated by STI1"},
      {"measurement": "effect of peptide on STI1-promoted U87MG proliferation (BrdU)", "setting": "U87MG cells; peptide 170 nM plus STI1 170 nM", "value": "blocked"},
      {"measurement": "effect of peptide on STI1-promoted U87MG proliferation (BrdU)", "setting": "U87MG cells; peptide 8 μM plus STI1 170 nM", "value": "blocked"}
    ]},
    {"compound": "recombinant mouse stress-inducible phosphoprotein 1 (STI1), wild type (from UniProt Q60864 1-543) (ligand)", "values": [
      {"measurement": "BrdU incorporation (proliferation) of A172 cells", "setting": "[3]", "value": 1.5, "unit": "fold"},
      {"measurement": "BrdU incorporation (proliferation) of U87MG cells", "setting": "[3]", "value": 3, "unit": "fold"},
      {"measurement": "[3H]-thymidine incorporation of A172 cells, concentration of the maximum effect", "setting": "[3]", "value": 170, "unit": "nM"}
    ]},
    {"compound": "N#CC(=C(/N)Sc1ccccc1N)/C(C#N)=C(\\N)Sc1ccccc1N", "note": "[U0126]", "values": [
      {"measurement": "effect of co-treatment on STI1-induced Erk activation", "setting": "Erk", "value": "abolished"},
      {"measurement": "effect of inhibitor on STI1-induced proliferation", "setting": "A172 cells [1]; U0126 10 μM or LY294002 5 μM added 10 minutes before STI1 170 nM", "value": "completely abolished STI1-induced proliferation"}
    ]},
    {"compound": "ELGNDAYKKKDFDTAL (listed as Homo sapiens) [Hop230-245, human homologue of mouse STI1230-245 peptide]", "values": [
      {"measurement": "effect in memory consolidation", "setting": "rats; rats, FIG. 11", "value": "potent effect in memory consolidation"},
      {"measurement": "effect of peptide on cell proliferation mediated by STI1 (BrdU)", "setting": "U87MG cells", "value": "able to abrogate the cell proliferation mediated by STI1"}
    ]},
    {"compound": "YGRKKRRQRRRELGNDAYKKKDFDTAL (conjugate of seq id nos 2 and 8) [TAT-Hop230-245]", "values": [
      {"measurement": "effect in memory consolidation", "setting": "rats; rat, in vivo", "value": "potent effect in memory consolidation"},
      {"measurement": "effect of TAT peptide on cell proliferation mediated by STI1 (BrdU)", "setting": "U87MG cells", "value": "able to block cell proliferation mediated by STI1"}
    ]},
    {"compound": "YGRKKRRQRRRELGNDAYKKKDFDKAL (conjugate of seq id nos 1 and 8) [TAT-STI1230-245]", "values": [
      {"measurement": "effect in memory consolidation", "setting": "rats; rat, in vivo", "value": "potent effect in memory consolidation"},
      {"measurement": "long-term memory (retention latency, LTM test 24 hours after training)", "setting": "rats; rat, in vivo", "value": "greatly enhanced long-term memory"},
      {"measurement": "effect of TAT peptide on cell proliferation mediated by STI1 (BrdU)", "setting": "U87MG cells", "value": "able to block cell proliferation mediated by STI1"}
    ]}
  ]
}
